Patent US12133857B2, “Method for prolonging half-life of theanine in vivo” (Anhui Agricultural University, priority 2023, dated 2024)

Columns and labels:
in vivo [1] = details: rat, po, 500 mg/kg
Protocol: 1-deoxy-1-L-theanine-D-fructopyranose was recorded as a theanine glycoside 1, 1-deoxy-1-L-theanine-D-galactopyranose was recorded as a theanine glycoside 2, and 1-deoxy-1-L-theanine-D-ribopyranose was recorded as a theanine glycoside 3. • 1. Experimental animals: Male SD rats with the body weight of (180±20) g were used. • 2. Administration and sample collection: The rats were intragastrically administered (n=6), which were randomly divided into two groups, including a theanine group and a theanine glycoside group. The rats were subjected to fasting without limitation of water for 12 h before administration and then allowed to drink water after intragastric administration. The intragastric administration dose was 500 mg/kg. 1 h, 2 h, 4 h, 8 h and 12 h before and after the administration, 0.5 mL of blood was collected from eye sockets of 6 rats in each group, respectively. Blood samples were centrifuged at 3,000 g for 15 min, supernatants were separated to obtain plasma samples, and the plasma samples were stored at −80° C. • 3. Instrument conditions and determination of plasma samples:
(§1) Instrument: SCIEX Triple Quad™ 5500 LC-MS/MS was used.
Drawing of a standard curve: 100 μL of blank plasma of the rats was taken, added into 1.5 mL of a 70% methanol aqueous solution and mixed in vortex for 30 s, and a resulting mixture was subjected to ultrasonic treatment in an ice water bath for 10 min, followed by standing at −20° C. for 20 min to precipitate a protein. The protein was centrifuged briefly for 15 s for 2 times, and a supernatant was taken out, dried by a vacuum concentrator at 4° C. and redissolved with 200 μl of methanol. 200 μL of a series of standard solutions of a tested compound and 10 μL of an internal standard (DL-4-chlorophenylmethylamino) were sequentially added to prepare plasma samples of the tested compound with a plasma concentration of 0.1 μM, 1 μM, 10 μM, 100 μM, 1,000 μM and 10,000 μM respectively, followed by LC-MS/MS analysis. With the concentration of the tested compound (x) as the abscissa and the ratio of peak areas of the tested compound and the internal standard (y) as the ordinate, regression calculation was performed by a weighted least square method to obtain a linear regression equation, namely a standard curve. According to the standard curve, the linear range of the tested compound in the plasma of the rats was 0.1 μM-10,000 μM as determined by an LC-MS/MS method. […]
The half-life T1/2 was calculated according to formulas below: […]

in vivo [2] = details: mouse, po, 500 mg/kg
Protocol: 1-deoxy-1-L-theanine-D-fructopyranose was recorded as a theanine glycoside 1, 1-deoxy-1-L-theanine-D-galactopyranose was recorded as a theanine glycoside 2, and 1-deoxy-1-L-theanine-D-ribopyranose was recorded as a theanine glycoside 3. • 1. Experimental animals: Male C57BL/6J mice with the body weight of (20±2) g were used. • 2. Administration and sample collection: The mice were intragastrically administered (n=6), which were randomly divided into two groups, including a theanine group and a theanine glycoside group. The mice were subjected to fasting without limitation of water for 12 h before administration and then allowed to drink water after intragastric administration. The intragastric administration dose was 500 mg/kg. 1 h, 2 h, 4 h, 8 h and 12 h before and after the administration, 6 mice in each group were killed by cervical dislocation and then dissected to obtain brain tissues respectively, and the brain tissues were stored at −80° C. for subsequent detection. • 3. Instrument conditions and determination of brain tissue samples:
as §1
Drawing of a standard curve: 20 mg of blank brain tissues of the mice were taken, added into 1.5 mL of a 70% methanol aqueous solution and mixed in vortex for 30 s, and a resulting mixture was subjected to ultrasonic treatment in an ice water bath for 10 min, followed by standing at −20° C. for 20 min to precipitate a protein. The protein was centrifuged briefly for 15 s for 2 times, and a supernatant was taken out, dried by a vacuum concentrator at 4° C. and redissolved with 200 μL of methanol. 200 μl of a series of standard solutions of a tested compound and 10 μl of an internal standard (DL-4-chlorophenylmethylamino) were sequentially added to prepare brain tissue samples of the tested compound with a brain tissue concentration of 0.1 μM, 1 μM, 10 μM, 100 μM, 1,000 μM and 10,000 μM respectively, followed by LC-MS/MS analysis. With the concentration of the tested compound (x) as the abscissa and the ratio of peak areas of the tested compound and the internal standard (y) as the ordinate, regression calculation was performed by a weighted least square method to obtain a linear regression equation, namely a standard curve. According to the standard curve, the linear range of the tested compound in the plasma of the mice was 0.1 μM-10,000 μM as determined by an LC/MS/MS method. […]

For CCNC(=O)CC[C@H](NCC1(O)OC[C@@H](O)[C@@H](O)[C@@H]1O)C(=O)O (stereo partly drawn) [Theanine glycoside 1, 1-deoxy-1-L-theanine-D-fructopyranose], the “T1/2 in the blood” value (in vivo [1]) was 25.70 ± 1.31 h and the “T1/2 in the brain” value (in vivo [2]) was 19.56 ± 1.54 h.

For CCNC(=O)CC[C@H](NC1O[C@H](CO)[C@H](O)[C@H](O)[C@H]1O)C(=O)O (stereo partly drawn) [Theanine glycoside 2, 1-deoxy-1-L-theanine-D-galactopyranose], the “T1/2 in the blood” value (in vivo [1]) was 19.94 ± 1.06 h and the “T1/2 in the brain” value (in vivo [2]) was 13.55 ± 1.55 h.

With CCNC(=O)CC[C@H](NC1OC[C@@H](O)[C@@H](O)[C@H]1O)C(=O)O (stereo partly drawn) [Theanine glycoside 3, 1-deoxy-1-L-theanine-D-ribopyranose] the “T1/2 in the blood” value (in vivo [1]) was 16.80 ± 1.93 h and the “T1/2 in the brain” value (in vivo [2]) was 10.85 ± 0.54 h.

A half-life (in vivo [1]; male, SD) of 2.05 ± 0.12 h and a half-life (in vivo [2]; male, C57BL/6J) of 2.07 ± 0.19 h were found for CCNC(=O)CC[C@H](N)C(=O)O [Theanine, L-theanine] in this work.
